Experiments:
TNFα = TNFα (Homo sapiens, UniProt P01375); experiment: Immunoassay binding test, TNFa; details: compounds 100 to 0.78 μM; TNFα 10 ng/ml, receptor 100 ng/ml; read-out: BINDING TNF IC50
Procedure, shortened: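 ELISA-type binding test: receptor-coated plates blocked with 2% BSA, then cytokine (six-point dilution series) preincubated 2 h at 37 °C and bound overnight at 4 °C. Detection used biotinylated anti-cytokine antibody and avidin-HRP, read as OD at 450 nm. For IL-6, IL-6Ra was present at 200 ng/ml final.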

TNFa/TNFRI interaction = TNFa/TNFRI interaction (Homo sapiens, UniProt P01375); experiment: TNFa/TNFRI interaction displacement test; format: binding; details: for Displacement (%): compounds at 50 μM, human TNFRI 100 ng/ml; for Displacement EC50 TNFa in presence of compound: Difference: Compound EC50 minus SPD304 EC50;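 as to Displacement EC50 TNFa in presence of compound: Difference: SPD304 reference at 20 µM final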
Procedure, shortened: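 Plates coated overnight at 4° C with human TNFRI (100 ng/ml) and blocked with 2% BSA, then test mixtures were incubated overnight at 4° C. Bound cytokine detected with biotinylated anti-cytokine antibody (2 h, 37° C) and avidin-HRP, read as OD at 450 nm.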

IL-4 = molecular target: T1, IL-4 (Homo sapiens, UniProt P05112); experiment: Immunoassay binding test, IL-4; details: for IC50: IL-4 400 ng/ml, receptor 100 ng/ml, read-out: BINDING IL4 IC50
T1 sequence (P05112 25-153): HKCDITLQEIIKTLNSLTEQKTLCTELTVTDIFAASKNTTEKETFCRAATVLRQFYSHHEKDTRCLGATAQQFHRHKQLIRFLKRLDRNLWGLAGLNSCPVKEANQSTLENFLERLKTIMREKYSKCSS
Procedure, shortened: (§1)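 Compounds (final 100 to 0.78 μM) were preincubated 2 h at 37 °C with a fixed amount of cytokine; for IL-6, IL-6Ra was also present at 200 ng/ml final. Mixtures were then incubated overnight at 4 °C on receptor-coated plates. Bound cytokine was detected with biotinylated anti-cytokine antibody and avidin-HRP, read as OD at 450 nm.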

IL-13 = IL-13 (Homo sapiens, UniProt P35225); experiment: Immunoassay binding test, IL-13; details: for IC50: IL-13 400 ng/ml, receptor 100 ng/ml, read-out: BINDING IL13 IC50
Procedure, shortened: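 Receptor-coated plates; compounds (100 to 0.78 μM final) preincubated 2 h at 37° C with fixed cytokine, then bound to receptor overnight at 4° C. Bound cytokine detected with biotinylated anti-cytokine antibody and avidin-HRP, OD 450 nm.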

IL-6 = IL-6 (Homo sapiens, UniProt P05231); experiment: Immunoassay binding test, IL-6 (gp130 receptor, IL-6Ra present); details: IL-6Ra 200 ng/ml
Procedure, shortened: as §1

TNFα, sequence (P01375 77-233 limits assumed, species assumed): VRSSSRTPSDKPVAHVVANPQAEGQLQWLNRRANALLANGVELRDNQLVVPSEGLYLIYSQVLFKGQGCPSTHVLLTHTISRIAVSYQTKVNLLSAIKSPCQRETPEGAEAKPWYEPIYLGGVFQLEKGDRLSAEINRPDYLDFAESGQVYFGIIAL
TNFa/TNFRI interaction, sequence (P01375 77-233 limits assumed): as the sequence (P01375 77-233 limits assumed, species assumed) above
IL-13, sequence (P35225 25-146, species assumed): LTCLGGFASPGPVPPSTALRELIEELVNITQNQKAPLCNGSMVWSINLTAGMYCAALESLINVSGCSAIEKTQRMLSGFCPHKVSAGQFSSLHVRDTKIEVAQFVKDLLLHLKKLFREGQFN
IL-6, sequence (P05231 30-212, species assumed): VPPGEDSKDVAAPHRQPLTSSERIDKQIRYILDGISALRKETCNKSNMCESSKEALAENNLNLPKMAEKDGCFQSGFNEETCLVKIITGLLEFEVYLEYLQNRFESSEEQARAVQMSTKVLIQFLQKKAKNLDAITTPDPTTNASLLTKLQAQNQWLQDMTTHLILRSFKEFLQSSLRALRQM

Compound | IC50 (TNFα) [µM] | Displacement (%) (TNFa/TNFRI interaction) | BINDING IL4 % Neutra at 100 μM (IL-4) [%] | IC50 (IL-4) [µM] | BINDING IL13 % Neutra at 100 μM (IL-13) [%] | IC50 (IL-13) [µM] | BINDING IL6 % Neutra at 100 μM (IL-6) [%] | Displacement EC50 TNFa in presence of compound: Difference (TNFa/TNFRI interaction) [ng/mL]
O=S(=O)(c1ccccc1)n1cc(CN(CCCCNC2CCCCC2)Cc2cccnc2F)c2ccccc21 [Compound 43, N1-cyclohexyl-N4-((2-fluoropyridin-3-yl)methyl)-N4-((1-(phenylsulfonyl)-1H-indol-3-yl)methyl)butane-1,4-diamine] | 8.8 | 87 | 93.2 | 6.7 | 85.1 | > 50 | 0 | –
CN(CCCN(Cc1ccncc1)Cc1cn(-c2cccc(C(F)(F)F)c2)c2ccccc12)C1CCCCC1 [Compound 14] | 11.8 | 149 | 98.4 | 5.3 | 91.2 | > 50 | 2.8 | –
CCCN(CCOCCN(Cc1cccnc1F)Cc1cn(S(=O)(=O)c2ccccc2)c2ccccc12)C1CCCCC1 [Compound 101] | 17.4 | 152 | 81.9 | 7.9 | 56.3 | 35.5 | 0 | –
CN1CCN(C(=O)NCCCCN(Cc2cccnc2F)Cc2cn(S(=O)(=O)c3ccccc3)c3ccccc23)CC1 [Compound 83] | 21 | 93 | 84.6 | > 50 | 1 | – | 0 | –
NCCN(Cc1cccnc1)Cc1cn(S(=O)(=O)c2ccccc2)c2ccccc12 [Compound 59] | 35.8 | 78 | 89.4 | 43.9 | 59.3 | > 50 | 0 | –
CN(CCCCN(Cc1cccnc1F)Cc1cn(S(=O)(=O)c2ccccc2)c2ccccc12)C1CCCCC1 [Compound 49, N1-cyclohexyl-N4-((2-fluoropyridin-3-yl)methyl)-N1-methyl-N4-((1-(phenylsulfonyl)-1H-indol-3-yl)methyl)butane-1,4-diamine] | 8.2 | 127 | 89.5 | 5.6 | 88.8 | 23.9 | 0 | –
O=S(=O)(c1ccccc1)n1cc(CN(Cc2cccnc2)CC2CCCN(C3CCCCC3)C2)c2ccccc21 (stereo not shown) [Compound 3] | 4.6 | 196 | 96.4 | 6.6 | 96.9 | – | 5 | 7.4
O=S(=O)(c1ccccc1)n1cc(CN(CCCCN(C2CCC2)C2CCC2)Cc2cccnc2F)c2ccccc21 [Compound 86] | 5 | 188 | 92.6 | 4.9 | 87.9 | > 50 | 6 | –
CCN(CC)S(=O)(=O)NCCCCN(Cc1cccnc1F)Cc1cn(S(=O)(=O)c2ccccc2)c2ccccc12 [Compound 79] | > 50 | 3 | 31.0 | > 100 | 0 | – | 1 | –
FC(F)(F)c1cccc(-n2cc(CN(CCCCCNC3CCCCC3)Cc3ccncc3)c3ccccc32)c1 [Compound 37] | 19.1 | 123 | 96.3 | 4 | 96.4 | 7.4 | 20.4 | –
FC(F)(F)c1cccc(-n2cc(CN(CCCCNC3CCCCC3)Cc3cccnc3)c3ccccc32)c1 [Compound 21] | 14.1 | 141 | 98 | 2.1 | 94.6 | 19.5 | 3.7 | 4.9
O=S(=O)(c1ccccc1)n1cc(CN(CCCCCNC2CCCCC2)Cc2ccnc(F)c2)c2ccccc21 [Compound 47, N1-cyclohexyl-N5-((2-fluoropyridin-4-yl)methyl)-N5-((1-(phenylsulfonyl)-1H-indol-3-yl)methyl)pentane-1,5-diamine] | 8.9 | 99 | 93.3 | 5.5 | 93.1 | 17.8 | 0 | –
CN(CCCCCN(Cc1cccnc1)Cc1cn(S(=O)(=O)c2ccccc2)c2ccccc12)C1CCCCC1 [Compound 36] | 3.9 | 165 | 97.4 | 3.4 | 95 | 19.8 | −1.8 | –
CN(CCN(Cc1ccncc1)Cc1cn(S(=O)(=O)c2ccccc2)c2ccccc12)C1CCCCC1 [Compound 28] | 14.5 | 125 | 96.6 | 8.1 | 38.3 | > 50 | 12.4 | –
O=S(=O)(c1ccccc1)n1cc(CN(CCCCNC2CCCCC2)Cc2cccc(F)n2)c2ccccc21 [Compound 45, N1-cyclohexyl-N4-((6-fluoropyridin-2-yl)methyl)-N4-((1-(phenylsulfonyl)-1H-indol-3-yl)methyl)butane-1,4-diamine] | 10.4 | 114 | 90.5 | 7.6 | 86.5 | > 50 | 0 | –
NCCCCN(Cc1cn(S(=O)(=O)c2ccccc2)c2ccccc12)Cc1cn(S(=O)(=O)c2ccccc2)c2ccccc12 [Compound 87] | 18.8 | 28 | 95.5 | 4.4 | 94.2 | 8.2 | 6 | –
CN(CCCCN(Cc1cccc(F)n1)Cc1cn(S(=O)(=O)c2ccccc2)c2ccccc12)C1CCCCC1 [Compound 51, N1-cyclohexyl-N4-((6-fluoropyridin-2-yl)methyl)-N1-methyl-N4-((1-(phenylsulfonyl)-1H-indol-3-yl)methyl)butane-1,4-diamine] | 7.9 | 153 | 87.2 | 6.7 | 89.4 | 25.9 | 0 | –
O=S(=O)(c1ccccc1)n1cc(CN(CCNC2CCCCC2)Cc2cccnc2)c2ccccc21 [Compound 25] | 22.6 | 99 | 94.6 | 7.8 | 61.2 | > 50 | −15.3 | –
O=S(=O)(c1ccccc1)n1cc(CN(CCCCNC2CCC2)Cc2cccnc2F)c2ccccc21 [Compound 69, N′-cyclobutyl-N^4-((2-fluoropyridin-3-yl)methyl)-N^4-((1-(phenylsulfonyl)-1H-indol-3-yl)methyl)butane-1,4-diamine] | 12.1 | 121 | 93.6 | 5.6 | 79.7 | > 50 | 0 | –
O=S(=O)(c1ccccc1)n1cc(CN(CCCCCNC2CCCCC2)Cc2cccnc2)c2ccccc21 [Compound 34] | 7.2 | 256 | 95.4 | 5.9 | 97.9 | > 50 | −4.8 | 9.9
Fc1ncccc1CN(Cc1cn(-c2cccc(C(F)(F)F)c2)c2ccccc12)CC1CCCN(C2CCCCC2)C1 (stereo not shown) [Compound 42] | 15.6 | 177 | 94.4 | 6.4 | 86.3 | 21.3 | 0 | 8.3

From US20230416239A1, “COMPOUNDS AND METHODS FOR TREATING A CYTOKINE-MEDIATED DISEASE” (CONSERVATOIRE NATIONAL DES ARTS ET MÉTIERS, priority 2020, published 2023)
